The record followed here is US10287252B2, “Inhibitors of tryptophan-2,3-dioxygenase or indoleamine-2,3-dioxygenase” (IOmet Pharma Ltd., priority 2014, dated 2019).

The target of assay [1] is T1, IDO (Homo sapiens, UniProt P14902). Kind of assay: hIDO biochemical coupled assay. The settings on record: 45 μM L-tryptophan, coupled with kynurenine formamidase. The protocol: (§1) Exemplary compounds of the invention were prepared, and tested to determine their effect as TDO and/or IDO inhibitors. Two different assays were employed: 1. a cell-based assay for detecting the effect of test compounds on kynurenine production in two different cancer cell types. This assay utilised cancer cells which expressed either TDO or IDO and as such was used as a means of testing compound activity at these two enzymes in a cell-based context. 2. a TDO and IDO biochemical coupled assay which utilised recombinantly produced and purified TDO and IDO enzymes in combination with the enzyme formamidase. This coupled enzyme system allowed conversion of N-formylkynurenine produced by TDO or IDO activity to kynurenine which was then quantified by fluorescence following addition of Erhlich's Reagent The protocols for these are set out below.
(§2) TDO and IDO Biochemical Coupled Assay
(§3) Recombinant human IDO or TDO was incubated in 50 mM KPO4 (pH 7.0), 0.5 mM EGTA, 0.5 mM EDTA, 0.05% Triton™ X100, 20 mM ascorbate, 10 μM methylene blue, 500 U/ml catalase, 50 μg/ml KynB (kynurenine formamidase). TDO assays were carried out in the presence of 330 μM L-tryptophan, while IDO assays had the addition of 45 μM L-tryptophan. After incubation for 17 minutes at room temperature the reactions were stopped by the addition of Erhlich's reagent and incubated at room temperature for 5 minutes before the fluorescence was read (Ex475, Em530).

Assay [2] deals with T2, TDO (Homo sapiens, UniProt P48775). Kind of assay: hTDO biochemical coupled assay. The settings on record: 330 μM L-tryptophan, coupled with kynurenine formamidase. On the procedure: as §1, §2, §3
In assay [3] the target is T1, IDO. Nature of the assay: SKOV3 Kynurenine cell based assay. More on the design: IDO expression was induced in the SKOV3 cells by the addition of 500 ng/ml IFN-γ; endogenous in cells; host or cells: SKOV3 (human ovarian adenocarcinoma), induced with IFN-γ. The following applies: SKOV3 (human ovarian adenocarcinoma) cells, IDO induced by 500 ng/ml IFN-γ, 500 μM L-tryptophan, 48 hours. The protocol:
as §1
(§4) Cell Based Assay for Detection of Kynurenine Produced by TDO and/or IDO
(§5) A172 (human glioblastoma) and SKOV3 (human ovarian adenocarcinoma) cells were seeded in a 96 well plate at 30,000 or 40,000 cells per well respectively in phenol red-free RPMI supplemented with 10% FCS, 2 mM L-glutamine and 500 μM L-tryptophan. IDO expression was induced in the SKOV3 cells by the addition of 500 ng/ml IFN-γ. Cells were incubated at 37° C. with or without the addition of test compound. After 48 hours, the cells were removed by centrifugation and Erhlich's reagent was added to the supernatant. The Erhlich's reagent was incubated for 5 minutes before the absorbance was read at 490 nm.

Assay [4] concerns the target T2, TDO. Kind of assay: A172 Kynurenine cell based assay. Further details: This assay utilised cancer cells which expressed either TDO or IDO; endogenous in cells; host or cells: A172 (human glioblastoma). The following applies: A172 (human glioblastoma) cells, 500 μM L-tryptophan, 48 hours, kynurenine by Erhlich's reagent. The protocol:
as §1, §4, §5

Molecules are shown by their SMILES.

T1 sequence (P14902 whole entry): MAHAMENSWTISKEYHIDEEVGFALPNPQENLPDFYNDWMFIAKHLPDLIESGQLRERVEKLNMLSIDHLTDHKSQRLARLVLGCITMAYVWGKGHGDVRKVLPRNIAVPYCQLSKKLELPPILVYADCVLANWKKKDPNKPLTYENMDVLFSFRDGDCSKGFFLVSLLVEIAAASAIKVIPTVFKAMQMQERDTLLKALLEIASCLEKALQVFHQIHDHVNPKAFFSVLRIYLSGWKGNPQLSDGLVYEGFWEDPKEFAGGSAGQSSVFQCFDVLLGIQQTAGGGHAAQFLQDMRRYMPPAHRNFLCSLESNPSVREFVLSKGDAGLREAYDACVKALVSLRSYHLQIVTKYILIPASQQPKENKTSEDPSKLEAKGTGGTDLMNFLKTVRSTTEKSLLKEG
T2 sequence (P48775 whole entry): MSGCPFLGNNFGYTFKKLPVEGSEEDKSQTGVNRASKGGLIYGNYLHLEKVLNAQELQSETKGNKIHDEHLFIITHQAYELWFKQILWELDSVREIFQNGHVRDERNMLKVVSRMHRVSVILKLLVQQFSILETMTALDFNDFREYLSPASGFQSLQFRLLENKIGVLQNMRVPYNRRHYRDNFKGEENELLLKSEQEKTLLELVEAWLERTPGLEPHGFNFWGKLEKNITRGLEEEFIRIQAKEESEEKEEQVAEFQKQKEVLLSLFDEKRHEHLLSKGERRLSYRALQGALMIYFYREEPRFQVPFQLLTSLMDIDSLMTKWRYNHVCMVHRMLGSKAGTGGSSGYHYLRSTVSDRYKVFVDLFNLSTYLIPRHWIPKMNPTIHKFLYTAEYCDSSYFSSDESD

Turning to `Cc1cc2c(NC(=O)c3ccc4ncccc4c3)cccc2nn1` [Compound 2], in assay [1], the “hIDO biochemical assay pIC50” value was “+/− (+/− = pIC50 <4.00)”. Also, the “hTDO biochemical assay pIC50” value in assay [2] is listed as “++ (++ = pIC50 4.50-5.49)”. In addition, the “SKOV3 Kynurenine cell based assay pIC50” value in assay [3] was “+ (+ = pIC50 4.00-4.49)”. Moreover, the “A172 Kynurenine cell based assay pIC50” value in assay [4] is on record as “+ (+ = pIC50 4.00-4.49)”.
Consider `CC(C)Oc1ccc(S(=O)(=O)Nc2cc(Cl)cc3cnccc23)cc1` [Compound 58], for which the “hIDO biochemical assay pIC50” value in assay [1] is given as “+ (+ = pIC50 4.00-4.49)”. Also, in assay [2], the “hTDO biochemical assay pIC50” value is “+/− (+/− = pIC50 <4.00)”. The “SKOV3 Kynurenine cell based assay pIC50” value in assay [3] was “++ (++ = pIC50 4.50-5.49)”. The “A172 Kynurenine cell based assay pIC50” value in assay [4] is reported as “+/− (+/− = pIC50 <4.00)”.
Turning to `COc1cccc(S(=O)(=O)Nc2cccc3cnccc23)c1` [Compound 14], the “hIDO biochemical assay pIC50” value in assay [1] is recorded as “++ (++ = pIC50 4.50-5.49)”. For the same molecule, in assay [3], the “SKOV3 Kynurenine cell based assay pIC50” value is listed as “++ (++ = pIC50 4.50-5.49)”. In addition, the “A172 Kynurenine cell based assay pIC50” value in assay [4] is recorded as “+++ (+++ = pIC50 ≥5.50)”.
Turning to `Cc1cc2c(NS(=O)(=O)c3ccccc3)cccc2nn1` [Compound 1], the “hIDO biochemical assay pIC50” value in assay [1] was “++ (++ = pIC50 4.50-5.49)”. Besides, in assay [2], the “hTDO biochemical assay pIC50” value is “++ (++ = pIC50 4.50-5.49)”. Besides, in assay [3], the “SKOV3 Kynurenine cell based assay pIC50” value is listed as “+ (+ = pIC50 4.00-4.49)”. For the same molecule, the “A172 Kynurenine cell based assay pIC50” value in assay [4] is “+ (+ = pIC50 4.00-4.49)”.
As for `CC(C)CS(=O)(=O)Nc1cccc2cnccc12` [Compound 4], the “hIDO biochemical assay pIC50” value in assay [1] is listed as “++ (++ = pIC50 4.50-5.49)”. Besides, the “hTDO biochemical assay pIC50” value in assay [2] is on record as “+++ (+++ = pIC50 ≥5.50)”. The “SKOV3 Kynurenine cell based assay pIC50” value in assay [3] was “+/− (+/− = pIC50 <4.00)”. Further, the “A172 Kynurenine cell based assay pIC50” value in assay [4] was “+ (+ = pIC50 4.00-4.49)”.
The corresponding values for `Cc1cc2c(NC(=O)c3ccc4ccccc4n3)cccc2nn1` [Compound 3] are “+/− (+/− = pIC50 <4.00)”, “+ (+ = pIC50 4.00-4.49)”, “+/− (+/− = pIC50 <4.00)” and “+ (+ = pIC50 4.00-4.49)”.
The like results for `O=S(=O)(Nc1cccc2cnccc12)c1cccc2ccccc12` [Compound 16] were, in that order, “++ (++ = pIC50 4.50-5.49)”, “+ (+ = pIC50 4.00-4.49)”, “++ (++ = pIC50 4.50-5.49)” and “++ (++ = pIC50 4.50-5.49)”.
The corresponding values for `O=S(=O)(Nc1cccc2ccncc12)c1ccccc1` [Compound 56] are “+ (+ = pIC50 4.00-4.49)”, “+/− (+/− = pIC50 <4.00)”, “+ (+ = pIC50 4.00-4.49)” and “+/− (+/− = pIC50 <4.00)”.
Take `O=C(Nc1cccc2cnccc12)C1COc2ccccc2C1` (stereo not drawn) [Compound 6]: in assay [1], the “hIDO biochemical assay pIC50” value is “+++ (+++ = pIC50 ≥5.50)”. In assay [2], the “hTDO biochemical assay pIC50” value is given as “+++ (+++ = pIC50 ≥5.50)”. The “SKOV3 Kynurenine cell based assay pIC50” value in assay [3] was “++ (++ = pIC50 4.50-5.49)”. The “A172 Kynurenine cell based assay pIC50” value in assay [4] is recorded as “+ (+ = pIC50 4.00-4.49)”.
Take `O=S(=O)(Nc1cc(Cl)cc2cnccc12)c1ccc(Cl)cc1` [Compound 57]: the “hIDO biochemical assay pIC50” value in assay [1] is recorded as “+ (+ = pIC50 4.00-4.49)”. Moreover, the “hTDO biochemical assay pIC50” value in assay [2] is “+/− (+/− = pIC50 <4.00)”. In addition, in assay [3], the “SKOV3 Kynurenine cell based assay pIC50” value is on record as “++ (++ = pIC50 4.50-5.49)”. Besides, the “A172 Kynurenine cell based assay pIC50” value in assay [4] was “+/− (+/− = pIC50 <4.00)”.
Consider `CC(=O)Nc1ccc(S(=O)(=O)Nc2cccc3cnccc23)cc1` [Compound 24], for which the “SKOV3 Kynurenine cell based assay pIC50” value in assay [3] is listed as “++ (++ = pIC50 4.50-5.49)”. The “A172 Kynurenine cell based assay pIC50” value in assay [4] is “+/− (+/− = pIC50 <4.00)”.
Turning to `CS(=O)(=O)c1ccc(S(=O)(=O)Nc2cccc3cnccc23)cc1` [Compound 34], the “SKOV3 Kynurenine cell based assay pIC50” value in assay [3] is on record as “+ (+ = pIC50 4.00-4.49)”. Moreover, in assay [4], the “A172 Kynurenine cell based assay pIC50” value is given as “+/− (+/− = pIC50 <4.00)”.
The like results for `O=S(=O)(Nc1cccc2cnccc12)c1ccc(Cl)s1` [Compound 29] were, in that order, “++ (++ = pIC50 4.50-5.49)” and “++ (++ = pIC50 4.50-5.49)”.
The corresponding values for `CC(C)CS(=O)(=O)N(c1cccc2cnccc12)S(=O)(=O)CC(C)C` [Compound 5] are “+ (+ = pIC50 4.00-4.49)” and “+/− (+/− = pIC50 <4.00)”.
The like results for `O=S(=O)(Nc1ccc(Cl)cc1)c1cccc2cnccc12` [Compound 46] were, in that order, “++ (++ = pIC50 4.50-5.49)” and “+ (+ = pIC50 4.00-4.49)”.
Consider `O=S(=O)(Nc1ccc2cnccc2c1)c1ccccc1` [Compound 39], for which, in assay [3], the “SKOV3 Kynurenine cell based assay pIC50” value is recorded as “+ (+ = pIC50 4.00-4.49)”. Moreover, the “A172 Kynurenine cell based assay pIC50” value in assay [4] is reported as “+/− (+/− = pIC50 <4.00)”.
Consider `O=S(=O)(Nc1cccc2cnccc12)c1ccccc1` [Compound 9], for which the “hIDO biochemical assay pIC50” value in assay [1] is “++ (++ = pIC50 4.50-5.49)”. Besides, in assay [2], the “hTDO biochemical assay pIC50” value was “++ (++ = pIC50 4.50-5.49)”. Further, the “SKOV3 Kynurenine cell based assay pIC50” value in assay [3] is given as “++ (++ = pIC50 4.50-5.49)”. For the same molecule, the “A172 Kynurenine cell based assay pIC50” value in assay [4] is reported as “+++ (+++ = pIC50 ≥5.50)”.
As to `N#Cc1ccccc1S(=O)(=O)Nc1cccc2cnccc12` [Compound 36], the “SKOV3 Kynurenine cell based assay pIC50” value in assay [3] is reported as “+ (+ = pIC50 4.00-4.49)”. Moreover, the “A172 Kynurenine cell based assay pIC50” value in assay [4] is “+/− (+/− = pIC50 <4.00)”.
